Data set [1] has as its system human lung cancer cell line (A549). As to the kind of experiment: MTT assay, tumor cell proliferation inhibition, A549. The settings on record: A549, MTT, 72 h, read-out: Tumor inhibition rate (IC50). The class given is cell-based. As for the experimental part:
(§1) Cell lines to be tested: human hepatoma cell line (HepG2), human lung cancer cell line (A549), human prostate cancer cell line (DU145), human breast cancer cell line (MCF-7), human neuroblastoma cell line (SH-SY5Y), human gastric mucosal cell line (Ges-1) and human embryonic lung fibroblast cell line (CCC-HPF-1) (the cells to be tested were purchased from the Cancer Hospital of Chinese Academy of Medical Sciences).
(§2) The cells in logarithmic growth phase were treated to prepare a single cell suspension, with the cell density adjusted, which was seeded in a 96-well cell culture plate. About 2×10^3 cells were contained in 100 μL per well, and cultured in a cell incubator at 37° C., 5% CO2, and saturated humidity for 24 h. The used medium was aspirated and abandoned, and then 100 μL of the target compound in different concentrations (0.1 μM-100 μM) were added for drug treatment. Five duplicate wells were prepared for each concentration. The background blank well, negative control well and positive control well were also prepared. All the wells were placed in a cell culture incubator at 37° C., 5% CO2, saturated humidity for another 72 h. Then, each well was added with 10 μL of MTT solution (5 mg/mL) and incubated for another 4 h. After that, each well was added with 100 μL of 10% SDS-0.1% NH4Cl (10% SDS purchased from Beijing Mengyimei Biotechnology Co., Ltd.) solution, and incubated at 37° C. for 10 h in the dark. Then, the absorbance OD was measured at 570 nm using a microplate reader at a reference wavelength of 650 nm. Cell proliferation inhibition was calculated according to the following formula: % inhibition=(ODcontrol−ODtreat)(ODcontrol−ODblank)×100. […] Each group was performed at least three times in parallel.

In data set [2] the test system is human neuroblastoma cell line (SH-SY5Y). As to the kind of experiment: MTT assay, tumor cell proliferation inhibition, SH-SY5Y. It counts as cell-based. The settings on record: SH-SY5Y, 72 h, read-out: Tumor inhibition rate (IC50). The procedure: as §1, §2
For data set [3], the system named is tumor cell strains HepG2, A549, MCF-7, DU145 and SH-SY5Y. As to the kind of experiment: MTT assay, summary over the five tumor cell lines. The class given is cell-based, human. The settings on record: HepG2, A549, MCF-7, DU145, SH-SY5Y. As for the experimental part:
as §1
The cells in logarithmic growth phase were treated to prepare a single cell suspension, with the cell density adjusted, which was seeded in a 96-well cell culture plate. About 2×10^3 cells were contained in 100 μL per well, and cultured in a cell incubator at 37° C., 5% CO2, and saturated humidity for 24 h. The used medium was aspirated and abandoned, and then 100 μL of the target compound in different concentrations (0.1 μM-100 μM) were added for drug treatment. Five duplicate wells were prepared for each concentration. The background blank well, negative control well and positive control well were also prepared. All the wells were placed in a cell culture incubator at 37° C., 5% CO2, saturated humidity for another 72 h. Then, each well was added with 10 μL of MTT solution (5 mg/mL) and incubated for another 4 h. After that, each well was added with 100 μL of 10% SDS-0.1% NH4Cl (10% SDS purchased from Beijing Mengyimei Biotechnology Co., Ltd.) solution, and incubated at 37° C. for 10 h in the dark. Then, the absorbance OD was measured at 570 nm using a microplate reader at a reference wavelength of 650 nm. Cell proliferation inhibition was calculated according to the following formula: % inhibition=(ODcontrol−ODtreat)(ODcontrol−ODblank)×100. IC50 value, i.e., 50% proliferation inhibition concentration, was calculated by SPSS 16.0 software. Each group was performed at least three times in parallel.
The inhibitory activities of 35 target compounds against tumor cell strains HepG2, A549, MCF-7, DU145 and SH-SY5Y were tested by MTT assay (Table 1). Some compounds with optimal antitumor activity were selected.

The test system of data set [4] is human prostate cancer cell line (DU145). As to the kind of experiment: MTT assay, tumor cell proliferation inhibition, DU145. It counts as cell-based. The following applies: DU145, MTT, 72 h, read-out: Tumor inhibition rate (IC50). As for the experimental part: as §1, §2
Data set [5] relates to human hepatoma cell line (HepG2). As to the kind of experiment: MTT assay, tumor cell proliferation inhibition, HepG2. The settings on record: 72 h, read-out: Tumor inhibition rate (IC50). The class given is cell-based. As for the experimental part: as §1, §2
The subject of data set [6] is human breast cancer cell line (MCF-7). As to the kind of experiment: MTT assay, tumor cell proliferation inhibition, MCF-7. It counts as cell-based. The following applies: MCF-7, MTT, 72 h, read-out: Tumor inhibition rate (IC50). The procedure: as §1, §2
The subject of a further data set is HepG2 cancer cells. As to the kind of experiment: Nude mice bearing HepG2 cancer cells.

“Also recorded” adds a separate entry of the source. Where two headings read alike, the source gives them in different places.

Experimental for HepG2 cancer cells: Firstly, a tumor-bearing nude mouse model was established. […] Then, grouping and administration were performed; the nude mice (5 mice in each group) were randomly divided into several groups, such as ultra-pure water control group (blank), positive drug control group, and different dosage treatment groups. The nude mice in each group were administered continuously for 40 days. The nude mice were weighted every other day during the administration. Tumor volumes were measured and calculated.

Turning to `c1ccc(COc2ccc(Nc3ncnc4cc5c(cc34)OCCOCCOCCOCCO5)cc2)cc1` [Compound 29, N-(4-((phenyl)methoxy)phenyl)-6,7-(benzo-15-crown-5)-4-quinazolinamine], the IC50 in data set [1] worked out at 29.5 µM; in data set [2] it was 5.25 µM; in data set [4] it was 8.8 µM; in data set [5], 11.9 µM; in data set [6] it was 12 µM. In data set [3], the “inhibitory effect on proliferation of the five tumor cells (in words)” value (from here on “inhibitory effect on proliferation”) was “good inhibitory effect on proliferation of at least three of the five tumor cells”.

With `FC(F)(F)c1ccc(COc2cccc(Nc3ncnc4cc5c(cc34)OCCOCCOCCOCCO5)c2)cc1` [Compound 34, N-(3-((4-trifluoromethylphenyl)methoxy)phenyl)-6,7-(benzo-15-crown-5)-4-quinazolinamine], the IC50 in data set [1] came to 8.52 µM; in data set [2], 8.56 µM; in data set [4] it was 26.9 µM; in data set [5], 5.7 µM; in data set [6] it was 8.48 µM. In addition, the “inhibitory effect on proliferation” value in data set [3] was “good inhibitory effect on proliferation of at least three of the five tumor cells”.

`FC(F)(F)c1ccc(COc2ccc(Nc3ncnc4cc5c(cc34)OCCOCCOCCOCCO5)cc2)cc1` [Compound 35, N-(4-((4-trifluoromethylphenyl)methoxy)phenyl)-6,7-(benzo-15-crown-5)-4-quinazolinamine]: the melting point is 197 to 198 °C. The IC50 in data set [1] (Homo sapiens) was 8.56 µM. Besides, the IC50 in data set [2] (Homo sapiens) worked out at 2.14 µM. The “inhibitory effect on proliferation” value in data set [3] is “good inhibitory effect on proliferation of at least three of the five tumor cells; also recorded: high anticancer activity on all the five tumor cells”. Also, the IC50 in data set [4] (Homo sapiens, DU-145) amounted to 8.8 µM. In addition, in data set [5] (Homo sapiens), the IC50 turned out to be 3.34 µM. For the same compound, in the data set with HepG2 cancer cells (20 mg/Kg, single agent), the “body weight of the mice (FIG. 6)” value is “significantly increased”. Moreover, the “weight loss of nude mice (FIG. 6)” value in the data set on HepG2 cancer cells (40 mg/Kg, single agent) is on record as “weight loss of nude mice is similar”. Moreover, in the data set with HepG2 cancer cells (nude mice bearing HepG2, single agent), the “tumor growth (tumor volume, FIG. 5)” value is given as “can slow down the tumor growth with increasing drug dose”. Moreover, the IC50 in data set [6] (Homo sapiens, MCF7) was determined as 10 µM.

The compound `O=[N+]([O-])c1ccc(COc2cccc(Nc3ncnc4cc5c(cc34)OCCOCCOCCOCCO5)c2)cc1` [Compound 31, N-(3-((4-nitrophenyl)methoxy)phenyl)-6,7-(benzo-15-crown-5)-4-quinazolinamine] came in with a melting point of 136 to 137 °C. In addition, the IC50 in data set [1] (Homo sapiens) was 19.8 µM. Also, the IC50 in data set [2] (Homo sapiens) was 8.42 µM. Besides, in data set [3], the “inhibitory effect on proliferation” value is on record as “good inhibitory effect on proliferation of at least three of the five tumor cells”. The IC50 in data set [4] (Homo sapiens, DU-145) came to 13.8 µM. Moreover, the IC50 in data set [5] (Homo sapiens) was found to be 9.82 µM. Also, the IC50 in data set [6] (Homo sapiens, MCF7) stood at 6.41 µM.

These data come from patent US11504371B2, “Quinazolines compound, preparation method therefor and application thereof” (Beijing Normal University, priority 2017, dated 2022).
